The record followed here is patent US8445676B2, “Pyrrolotriazine kinase inhibitors” (Bristol-Myers Squibb Company, priority 2008, dated 2013).

Usually pIC50 stands for the negative decadic logarithm of the IC50, by convention in mol/L.

Molecules are shown by their SMILES. pIC50: −log10 of the molar value. Where two headings read alike, the source gives them in different places.

One test deals with JAK2 (Homo sapiens, UniProt O60674). In words: JAK2 Tyrosine Kinase Assay. Format: biochemical. An outline of the steps: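 Reaction of JAK2 with fluorescent substrate run 60 min at room temperature and stopped with EDTA. Substrate and phosphorylated product separated electrophoretically on a Caliper LabChip. Compounds tested at eleven concentrations in duplicate, with IC50 from non-linear regression.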
Chain of JAK2 (O60674 whole entry): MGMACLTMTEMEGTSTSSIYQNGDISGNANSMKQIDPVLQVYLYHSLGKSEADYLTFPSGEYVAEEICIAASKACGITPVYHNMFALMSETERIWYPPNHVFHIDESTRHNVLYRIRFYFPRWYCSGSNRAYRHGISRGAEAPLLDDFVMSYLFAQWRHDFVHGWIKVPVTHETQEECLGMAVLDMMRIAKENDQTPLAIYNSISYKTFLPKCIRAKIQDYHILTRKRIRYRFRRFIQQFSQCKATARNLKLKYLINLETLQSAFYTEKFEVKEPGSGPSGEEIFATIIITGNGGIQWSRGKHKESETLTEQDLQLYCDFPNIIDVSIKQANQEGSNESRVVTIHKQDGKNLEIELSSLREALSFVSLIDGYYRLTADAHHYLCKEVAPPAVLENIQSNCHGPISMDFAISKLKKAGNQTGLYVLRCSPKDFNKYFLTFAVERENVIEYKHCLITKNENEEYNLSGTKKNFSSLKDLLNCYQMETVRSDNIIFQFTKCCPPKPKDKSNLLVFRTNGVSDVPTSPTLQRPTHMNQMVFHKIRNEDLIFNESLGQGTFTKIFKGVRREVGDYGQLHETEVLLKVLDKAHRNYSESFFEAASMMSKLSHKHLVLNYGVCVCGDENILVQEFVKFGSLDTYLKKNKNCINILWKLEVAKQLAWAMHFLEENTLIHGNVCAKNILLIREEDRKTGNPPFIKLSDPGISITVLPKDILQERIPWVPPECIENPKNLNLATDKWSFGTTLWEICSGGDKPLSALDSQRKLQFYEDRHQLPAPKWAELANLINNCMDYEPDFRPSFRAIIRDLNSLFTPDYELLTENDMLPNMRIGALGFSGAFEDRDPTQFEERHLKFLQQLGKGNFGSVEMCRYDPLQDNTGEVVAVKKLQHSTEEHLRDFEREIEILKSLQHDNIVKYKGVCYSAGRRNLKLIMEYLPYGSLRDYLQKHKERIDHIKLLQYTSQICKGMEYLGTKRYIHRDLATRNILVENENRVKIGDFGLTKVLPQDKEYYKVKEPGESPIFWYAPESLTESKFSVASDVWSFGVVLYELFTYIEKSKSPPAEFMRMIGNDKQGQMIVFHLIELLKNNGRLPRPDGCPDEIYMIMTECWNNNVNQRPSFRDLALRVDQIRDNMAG

A further test has as its target T1, JAK3 (Homo sapiens, UniProt P52333).
T1 sequence (P52333 1-1124): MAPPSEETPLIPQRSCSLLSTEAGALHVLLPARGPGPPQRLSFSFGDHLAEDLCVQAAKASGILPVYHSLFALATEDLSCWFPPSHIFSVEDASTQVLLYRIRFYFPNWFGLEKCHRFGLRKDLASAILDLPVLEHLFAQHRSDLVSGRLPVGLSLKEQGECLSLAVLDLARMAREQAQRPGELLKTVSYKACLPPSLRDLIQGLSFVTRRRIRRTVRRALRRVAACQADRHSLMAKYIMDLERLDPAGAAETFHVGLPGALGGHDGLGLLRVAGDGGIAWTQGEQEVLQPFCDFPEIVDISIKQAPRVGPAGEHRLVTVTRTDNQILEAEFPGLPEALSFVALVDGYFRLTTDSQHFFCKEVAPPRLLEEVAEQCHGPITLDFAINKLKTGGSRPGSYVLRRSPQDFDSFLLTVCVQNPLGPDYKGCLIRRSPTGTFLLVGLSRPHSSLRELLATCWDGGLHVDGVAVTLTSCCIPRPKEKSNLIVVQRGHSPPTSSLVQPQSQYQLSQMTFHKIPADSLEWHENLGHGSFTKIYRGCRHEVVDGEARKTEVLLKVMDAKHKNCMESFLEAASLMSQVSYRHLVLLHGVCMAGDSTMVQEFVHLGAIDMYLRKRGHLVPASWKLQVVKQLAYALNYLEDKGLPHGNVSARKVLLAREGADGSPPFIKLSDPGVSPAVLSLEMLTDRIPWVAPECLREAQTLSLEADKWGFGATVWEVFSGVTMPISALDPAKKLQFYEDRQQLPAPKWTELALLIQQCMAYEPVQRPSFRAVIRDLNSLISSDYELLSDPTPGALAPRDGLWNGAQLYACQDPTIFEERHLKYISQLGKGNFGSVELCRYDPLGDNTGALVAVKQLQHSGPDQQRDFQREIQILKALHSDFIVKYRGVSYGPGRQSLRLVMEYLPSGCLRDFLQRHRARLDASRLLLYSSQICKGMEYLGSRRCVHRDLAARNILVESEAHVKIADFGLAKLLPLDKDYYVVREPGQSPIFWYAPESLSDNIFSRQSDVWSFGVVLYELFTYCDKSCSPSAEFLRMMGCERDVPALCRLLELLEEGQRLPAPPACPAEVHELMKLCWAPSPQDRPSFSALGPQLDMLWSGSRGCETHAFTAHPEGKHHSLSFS
The test can be described thus: JAK3 Tyrosine Kinase Assay. In kind it is biochemical. The note with it: ATP 8 μM; JAK3 2.5 nM; 60 min room temperature. On the procedure: JAK3 Tyrosine Kinase Assay
The assays were performed in V-bottom 384-well plates. […] The reaction was initiated by the combination of JAK3 with substrates and test compounds. The reaction was incubated at room temperature for 60 min. and terminated by adding 45 μl of 35 mM EDTA to each sample. The reaction mixture was analyzed on the Caliper LabChip 3000 by electrophoretic separation of the fluorescent substrate and phosphorylated product. […] The final concentration of reagents in the assays is ATP, 8 μM; JAK3 fluorescent peptide, 1.5 μM; JAK3, 2.5 nM; and DMSO, 1.6%. […] Compounds were dissolved at 10 mM in dimethylsulfoxide (DMSO) and evaluated at eleven concentrations, each in duplicate. IC50 values were derived by non-linear regression analysis.

Where [1] appears, read: ATP 30 μM, JAK2 1 nM, 60 min room temperature, read-out: Jak2(IC50).
Setting [2] is: list of named compounds, read-out: IC50 in the JAK2 assay.

With `Cc1cc(Nc2nc(N3CCN(C(=O)Cc4cccc(C(F)(F)F)c4)CC3)nn3cccc23)n[nH]1` [Example 48, N-(5-methyl-1H-pyrazol-3-yl)-2-(4-((3-(trifluoromethyl)phenyl)acetyl)-1-piperazinyl)pyrrolo[2,1-f][1,2,4]triazin-4-amine], the pIC50 on JAK2 (setting [1]) is 9.04; at JAK3, 7.70.

Take `CCC(CO)(CO)C(=O)N1CCN(c2nc(Nc3cc(C)[nH]n3)c3cccn3n2)CC1` [Example 152, 2-ethyl-2-((4-(4-((5-methyl-1H-pyrazol-3-yl)amino)pyrrolo[2,1-f] [1,2,4]triazin-2-yl)-1-piperazinyl)carbonyl)-1,3-propanediol]: the results for the pIC50 at JAK2 (setting [1]) and at JAK3 were 6.52 and 5.63, respectively.

Consider `CO[C@H](C(=O)N1CCN(c2nc(Nc3cc(C)[nH]n3)c3cccn3n2)CC1)c1ccccc1` [Example 90, 2-(4-((2S)-2-methoxy-2-phenylacetyl)-1-piperazinyl)-N-(5-methyl-1H-pyrazol-3-yl)pyrrolo[2,1-f] [1,2,4]triazin-4-amine], for which the pIC50 on JAK2 (setting [1]) was 8.09; at JAK3 it was 7.15.

Consider `Cc1cc(Nc2nc(N3CCN(C(=O)C(C)(C)NC(=O)OC(C)(C)C)CC3)nn3cccc23)n[nH]1` [Example 150, tert-butyl (1,1-dimethyl-2-(4-(4-((5-methyl-1H-pyrazol-3-yl)amino)pyrrolo[2,1-f][1,2,4]triazin-2-yl)-1-piperazinyl)-2-oxoethyl)carbamate], for which the results for the negative logarithm of the IC50 (pIC50) at JAK2 (setting [1]) and on JAK3 were 6.15 and 4.86, respectively.

For `Cc1cc(Nc2nc(N3CCN(C(=O)c4ccc(F)cc4)CC3)nn3cccc23)n[nH]1` [Example 24, 2-(4-(4-fluorobenzoyl)-1-piperazinyl)-N-(5-methyl-1H-pyrazol-3-yl)pyrrolo[2,1-f][1,2,4]triazin-4-amine], the results for the pIC50 at JAK2 (setting [1]) and on JAK3 were 8.94 and 8.22, respectively.

For the compound `Cc1cc(Nc2nc(N3CCN(C(=O)Cc4ccc(C(F)(F)F)cc4)CC3)nn3cccc23)n[nH]1` [Example 43, N-(5-methyl-1H-pyrazol-3-yl)-2-(4-((4-(trifluoromethyl)phenyl)acetyl)-1-piperazinyl)pyrrolo[2,1-f][1,2,4]triazin-4-amine], the pIC50 on JAK2 (setting [1]) was 5.58; at JAK3, 4.30.

Take `Cc1cc(Nc2nc(N3CCN(C(=O)[C@@](C)(O)c4ccccc4)CC3)nn3cccc23)n[nH]1` [Example 211, (2S)-1-(4-(4-((5-methyl-1H-pyrazol-3-yl)amino)pyrrolo[2,1-f][1,2,4]triazin-2-yl)-1-piperazinyl)-1-oxo-2-phenyl-2-propanol]: the pIC50 at JAK2 (setting [1]) is 6.23; on JAK3 it was 5.02.

Consider `Cc1cc(Nc2nc(N3CCN(C(=O)C(C)(C)N(C)C(=O)OC(C)(C)C)CC3)nn3cccc23)n[nH]1` [Example 158, tert-butyl(1,1-dimethyl-2-(4-(4-((5-methyl-1H-pyrazol-3-yl)amino)pyrrolo[2,1-f] [1,2,4]triazin-2-yl)-1-piperazinyl)-2-oxoethyl)methylcarbamate], for which the negative logarithm of the IC50 (pIC50) was 6.52 on JAK2 (setting [1]) and 5.76 at JAK3.

On to `Cc1cnc(C(=O)N2CCN(c3nc(Nc4cc(C)[nH]n4)c4cccn4n3)CC2)cn1` [Example 32, 2-(4-((5-methyl-2-pyrazinyl)carbonyl)-1-piperazinyl)-N-(5-methyl-1H-pyrazol-3-yl)pyrrolo[2,1-f] [1,2,4]triazin-4-amine], for which the pIC50 is 8.15 at JAK2 (setting [1]) and 6.92 on JAK3.

`COc1cc(F)c(CC(=O)N2CCN(c3nc(Nc4cc(C)[nH]n4)c4cccn4n3)CC2)c(F)c1` [Example 139, 2-(4-((2,6-difluoro-4-methoxyphenyl)acetyl)-1-piperazinyl)-N-(5-methyl-1H-pyrazol-3-yl)pyrrolo[2,1-f][1,2,4]triazin-4-amine]: the pIC50 at JAK3 was 7.15.

As for `Cc1cc(Nc2nc(N3CCN(C(=O)Cc4ccc(C(F)(F)F)cc4C(F)(F)F)CC3)nn3cccc23)n[nH]1` [Example 134, 2-(4-((2,4-bis(trifluoromethyl)phenyl)acetyl)-1-piperazinyl)-N-(5-methyl-1H-pyrazol-3-yl)pyrrolo[2,1-f] [1,2,4]triazin-4-amine], the pIC50 was 9.05 at JAK2 (setting [1]) and 8.08 on JAK3.

With `Cc1cc(Nc2nc(N3CCN(C(=O)c4cccc(C#N)c4)CC3)nn3cccc23)n[nH]1` [Example 66, 3-((4-(4-((5-methyl-1H-pyrazol-3-yl)amino)pyrrolo[2,1-f][1,2,4]triazin-2-yl)-1-piperazinyl)carbonyl)benzonitrile], the pIC50 was 9.05 at JAK2 (setting [1]) and 8.00 at JAK3.

Consider `Cc1cc(Nc2nc(N3CCN(C(=O)C(C)(C)c4ccccc4)CC3)nn3cccc23)n[nH]1` [Example 7, 2-(4-(2-methyl-2-phenylpropanoyl)-1-piperazinyl)-N-(5-methyl-1H-pyrazol-3-yl)pyrrolo[2,1-f] [1,2,4]triazin-4-amine], for which the pIC50 was 6.49 on JAK2 (setting [1]) and 5.69 on JAK3.

`Cc1cc(Nc2nc(N3CCN(C(=O)c4ccccc4-c4ccccc4)CC3)nn3cccc23)n[nH]1` [Example 200, 2-(4-(2-biphenylylcarbonyl)-1-piperazinyl)-N-(5-methyl-1H-pyrazol-3-yl)pyrrolo[2,1-f][1,2,4]triazin-4-amine]: the pIC50 was 8.14 at JAK2 (setting [1]) and 6.92 on JAK3.

On to `Cc1cc(Nc2nc(N3CCN(C(=O)Cc4ccc(F)cc4F)CC3)nn3cccc23)n[nH]1` [Example 37, 2-(4-((2,4-difluorophenyl)acetyl)-1-piperazinyl)-N-(5-methyl-1H-pyrazol-3-yl)pyrrolo[2,1-f][1,2,4]triazin-4-amine], for which the pIC50 on JAK2 (setting [1]) was 8.11; on JAK3, 6.80.

`Cc1cc(Nc2nc(N3CCN(C(=O)c4ccccc4S(C)(=O)=O)CC3)nn3cccc23)n[nH]1` [Example 193, N-(5-methyl-1H-pyrazol-3-yl)-2-(4-(2-(methylsulfonyl)benzoyl)-1-piperazinyl)pyrrolo[2,1-f][1,2,4]triazin-4-amine]: the figures for the pIC50 at JAK2 (setting [1]) and at JAK3 were 6.89 and 5.52, respectively.

Take `Cc1cc(Nc2nc(N3CCN(C(=O)Cc4ccc(OC(F)(F)F)cc4)CC3)nn3cccc23)n[nH]1` [Example 91, N-(5-methyl-1H-pyrazol-3-yl)-2-(4-((4-(trifluoromethoxy)phenyl)acetyl)-1-piperazinyl)pyrrolo[2,1-f][1,2,4]triazin-4-amine]: the pIC50 at JAK2 (setting [1]) was 9.16; on JAK3, 7.70.

Turning to `Cc1cc(Nc2nc(N3CCN(C(=O)C4Cc5ccccc54)CC3)nn3cccc23)n[nH]1` (stereo not shown) [2-(4-(bicyclo[4.2.0]octa-1,3,5-trien-7-ylcarbonyl)-1-piperazinyl)-N-(5-methyl-1H-pyrazol-3-yl)pyrrolo[2,1-f][1,2,4]triazin-4-amine], the pIC50 at JAK2 (setting [2]) was not below 8.30.

For `Cc1cc(Nc2nc(N3CCN(C(=O)Cc4c(Cl)cccc4Cl)CC3)nn3cccc23)n[nH]1` [2-(4-((2,6-dichlorophenyl)acetyl)-1-piperazinyl)-N-(5-methyl-1H-pyrazol-3-yl)pyrrolo[2,1-f][1,2,4]triazin-4-amine], on JAK2 (setting [2]), the pIC50 is not below 8.30.

For the compound `Cc1cccc(CC(=O)N2CCN(c3nc(Nc4cc(C)[nH]n4)c4cccn4n3)CC2)c1` [2-(4-((3-methylphenyl)acetyl)-1-piperazinyl)-N-(5-methyl-1H-pyrazol-3-yl)pyrrolo[2,1-f][1,2,4]triazin-4-amine], the pIC50 on JAK2 (setting [2]) is not below 8.30.

Consider `Cc1cc(Nc2nc(N3CCN(C(=O)Cc4cccc(OC(F)(F)F)c4)CC3)nn3cccc23)n[nH]1` [N-(5-methyl-1H-pyrazol-3-yl)-2-(4-((3-(trifluoromethoxy)phenyl)acetyl)-1-piperazinyl)pyrrolo[2,1-f][1,2,4]triazin-4-amine], for which the pIC50 on JAK2 (setting [2]) is not below 8.30.
